{"source": "patent US20160206608A1", "about": "(Pfizer Inc., priority 2011, published 2016)", "key": {"[1]": {"tested_on": "SLC34A2-ROS dependent signaling (ROS, SHP2, STAT3, AKT, ERK1/2) in HCC78 cells", "assay": "Immunoblot of ROS mediated signal transduction in HCC78 cells", "settings": "3 hours of drug treatment"}, "HCC78 human NSCLC cells": {"tested_on": "HCC78 human NSCLC cells", "assay": "Western blot of cleaved caspase-3 (apoptosis) in HCC78 cells", "settings": "3-hour drug treatment"}, "[2]": {"tested_on": "3T3-ROS engineered tumor models (CD74-ROS, SLC34A2-ROS (L), SLC34A2-ROS (S), FIG-ROS (L), FIG-ROS (S))", "assay": "Panel of ROS fusion engineered 3T3-ROS xenograft tumor models", "settings": "PO BID, all five models, nude mice"}}, "data": [{"smiles": "C[C@@H](Oc1cc(-c2cnn(C3CCNCC3)c2)cnc1N)c1c(Cl)ccc(F)c1Cl", "note": "[crizotinib, 3-[(R)-1-(2,6-dichloro-3-fluoro-phenyl)-ethoxy]-5-(1-piperidin-4-yl-1H-pyrazol-4-yl)-pyridin-2-ylamine]", "values": [{"measurement": "inhibition of ROS phosphorylation (activation loop) and downstream SHP2, STAT3, AKT and ERK1/2", "setting": "[1]", "result": "dose dependently inhibited"}, {"measurement": "induction of activated caspase-3 levels", "setting": "HCC78 human NSCLC cells", "result": "significant dose-dependent induction"}, {"measurement": "cytoreductive effect in 3T3-ROS engineered tumor models", "setting": "[2]", "result": "significant cytoreductive effects"}]}]}
